Test results reported in patent publication US9833455B2, “Preparation and methods of use for ortho-aryl 5-membered heteroaryl-carboxamide containing multi-targeted kinase inhibitors” (Spacefill Enterprises LLC, priority 2011, dated 2017).

Tests used:
[1] = target: T1, BRAF (Homo sapiens, UniProt P15056); experiment: Nanosyn kinase profiling, % inhibition; assay type: biochemical; conditions: panel of 230 kinases
T1 construct: literature Ambit Biosciences
Method: (§1) “Inhibiting kinase activity” means to decrease the production of an phosphor-peptide by a particular kinase that can be separated by analytical techniques. For example, a comprehensive platform of kinase, protease, phosphatase and epigenetic assays that utilizes cutting-edge microfluidics and informatics tools to provide accurate and rapid results. Profiling data in this application were determined using these techniques at Nanosyn Inc. IC50 data were provided by Reaction Biology Inc using a P33 radiolabeled kinase assay.
(§2) A total of 15 new inhibitors were designed, prepared, and evaluated against a panel of 29 selected kinases in order to explore the applicability, SAR trends, and the tunability of this scaffold that could be imposed but this unique geometry, Table 21. Inhibitors I-1 to 1-12 all retained the 2-CF3-5-(4-F-phenyl) imidazole-4-carboxamide scaffold previously described (Deitrich, 2010), but explored different Hinge-Gatekeeper Motifs (HGM).
(§3) More modest activity for Aurora-A, FLT-1/4, KDR, KIT, PDGFRs was accompanied by better activity for B-Raf mutant and wild-type forms, Modest inhibition of MEK-1, BTK, c-Met, RET, and RON was also observed. […] Moreover, the observed inhibition of MEK-1 with 1-12 and TYK2 with I-6 represents additional activities against kinases for which no type-II inhibitors have been reported to date. […] To further evaluate the scope of inhibition, I-6 was evaluated against a larger panel of 230 kinases, Table-22.

[2] = target: CRAF (Homo sapiens, UniProt P04049); experiment: Nanosyn kinase profiling, % inhibition; assay type: biochemical; conditions: panel of 230 kinases
Method: as §1, §2, §3

[3] = target: FLT1 (Homo sapiens, UniProt P17948); experiment: Nanosyn kinase profiling, % inhibition; assay type: biochemical; conditions: panel of 230 kinases
Chain of FLT1 (P17948 27-1338): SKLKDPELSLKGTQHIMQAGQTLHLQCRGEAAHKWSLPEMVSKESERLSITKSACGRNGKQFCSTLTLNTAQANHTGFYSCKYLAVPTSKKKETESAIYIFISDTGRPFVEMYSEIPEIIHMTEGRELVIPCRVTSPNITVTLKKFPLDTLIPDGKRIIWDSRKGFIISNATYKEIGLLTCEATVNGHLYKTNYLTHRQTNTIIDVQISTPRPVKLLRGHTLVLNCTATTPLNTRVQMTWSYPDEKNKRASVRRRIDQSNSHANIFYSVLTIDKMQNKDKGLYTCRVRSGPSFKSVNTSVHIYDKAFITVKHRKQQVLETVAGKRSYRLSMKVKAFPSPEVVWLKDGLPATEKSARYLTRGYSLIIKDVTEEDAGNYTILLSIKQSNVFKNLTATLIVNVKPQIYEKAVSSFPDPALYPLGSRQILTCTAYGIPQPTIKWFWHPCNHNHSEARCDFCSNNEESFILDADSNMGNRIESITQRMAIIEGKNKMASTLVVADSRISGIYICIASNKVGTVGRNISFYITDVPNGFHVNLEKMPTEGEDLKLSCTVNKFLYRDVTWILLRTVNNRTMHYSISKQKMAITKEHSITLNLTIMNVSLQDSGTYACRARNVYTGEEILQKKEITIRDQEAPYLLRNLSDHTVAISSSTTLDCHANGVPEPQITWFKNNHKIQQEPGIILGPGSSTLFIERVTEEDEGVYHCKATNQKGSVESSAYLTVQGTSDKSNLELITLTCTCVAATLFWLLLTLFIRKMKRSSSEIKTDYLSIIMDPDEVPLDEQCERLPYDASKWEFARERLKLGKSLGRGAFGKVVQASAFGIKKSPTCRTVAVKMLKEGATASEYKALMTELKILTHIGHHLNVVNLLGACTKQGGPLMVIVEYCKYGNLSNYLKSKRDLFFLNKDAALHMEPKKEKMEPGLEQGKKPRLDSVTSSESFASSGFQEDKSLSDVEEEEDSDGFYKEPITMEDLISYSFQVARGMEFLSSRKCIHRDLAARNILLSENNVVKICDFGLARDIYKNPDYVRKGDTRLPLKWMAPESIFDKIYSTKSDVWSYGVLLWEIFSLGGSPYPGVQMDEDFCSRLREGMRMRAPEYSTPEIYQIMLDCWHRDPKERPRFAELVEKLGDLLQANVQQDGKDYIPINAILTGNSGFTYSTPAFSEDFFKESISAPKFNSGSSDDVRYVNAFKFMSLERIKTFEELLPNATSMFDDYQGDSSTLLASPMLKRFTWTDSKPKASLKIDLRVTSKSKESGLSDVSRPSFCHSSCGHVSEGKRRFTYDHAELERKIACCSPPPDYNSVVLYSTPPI
Method: as §1, §2, §3

[4] = target: FLT3 (Homo sapiens, UniProt P36888); experiment: Nanosyn kinase profiling, % inhibition; assay type: biochemical; conditions: panel of 230 kinases
Chain of FLT3 (P36888 27-993): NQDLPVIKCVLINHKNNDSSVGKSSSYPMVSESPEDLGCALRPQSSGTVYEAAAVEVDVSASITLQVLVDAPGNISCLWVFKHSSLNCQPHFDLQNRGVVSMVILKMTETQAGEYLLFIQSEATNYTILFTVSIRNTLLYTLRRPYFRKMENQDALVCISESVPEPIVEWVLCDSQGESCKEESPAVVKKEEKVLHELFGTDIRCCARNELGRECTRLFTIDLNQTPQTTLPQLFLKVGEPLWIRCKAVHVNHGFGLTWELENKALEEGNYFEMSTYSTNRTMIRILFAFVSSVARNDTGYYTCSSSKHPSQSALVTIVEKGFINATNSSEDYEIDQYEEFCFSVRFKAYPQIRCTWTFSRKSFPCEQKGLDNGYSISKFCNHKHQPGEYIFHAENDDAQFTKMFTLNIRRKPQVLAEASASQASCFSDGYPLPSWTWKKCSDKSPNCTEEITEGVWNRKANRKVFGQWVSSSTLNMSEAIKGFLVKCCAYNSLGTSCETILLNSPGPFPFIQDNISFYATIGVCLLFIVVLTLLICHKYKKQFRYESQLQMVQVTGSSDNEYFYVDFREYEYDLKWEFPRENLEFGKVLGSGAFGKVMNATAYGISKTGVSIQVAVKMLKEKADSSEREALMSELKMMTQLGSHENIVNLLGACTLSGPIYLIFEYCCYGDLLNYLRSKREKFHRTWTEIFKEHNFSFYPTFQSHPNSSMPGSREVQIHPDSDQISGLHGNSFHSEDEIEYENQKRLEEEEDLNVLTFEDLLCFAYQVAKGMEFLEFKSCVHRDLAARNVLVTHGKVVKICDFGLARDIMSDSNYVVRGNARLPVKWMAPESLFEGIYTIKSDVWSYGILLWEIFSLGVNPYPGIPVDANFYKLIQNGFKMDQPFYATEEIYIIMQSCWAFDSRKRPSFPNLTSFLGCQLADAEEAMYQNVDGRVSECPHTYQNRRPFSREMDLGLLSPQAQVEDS
Method: as §1, §2, §3

[5] = target: FMS (Homo sapiens, UniProt P07333); experiment: Nanosyn kinase profiling, % inhibition; assay type: biochemical; conditions: panel of 230 kinases
Method: as §1, §2, §3

[6] = target: KDR (Homo sapiens, UniProt P35968); experiment: Nanosyn kinase profiling, % inhibition; assay type: biochemical; conditions: panel of 230 kinases
Method: as §1, §2, §3

[7] = target: MET (Homo sapiens, UniProt P08581); experiment: Nanosyn kinase profiling, % inhibition; assay type: biochemical; conditions: panel of 230 kinases
Method: as §1, §2, §3

[8] = target: RET (Homo sapiens, UniProt P07949); experiment: Nanosyn kinase profiling, % inhibition; assay type: biochemical; conditions: panel of 230 kinases
Method: as §1, §2, §3

[9] = target: T2, BRAF(V600E) (Homo sapiens, UniProt P15056, V600E); experiment: LanthaScreen assay, side by side IC50 comparison; assay type: biochemical; conditions: LanthaScreen assay, side by side comparison
T2 sequence (P15056 whole entry V600E): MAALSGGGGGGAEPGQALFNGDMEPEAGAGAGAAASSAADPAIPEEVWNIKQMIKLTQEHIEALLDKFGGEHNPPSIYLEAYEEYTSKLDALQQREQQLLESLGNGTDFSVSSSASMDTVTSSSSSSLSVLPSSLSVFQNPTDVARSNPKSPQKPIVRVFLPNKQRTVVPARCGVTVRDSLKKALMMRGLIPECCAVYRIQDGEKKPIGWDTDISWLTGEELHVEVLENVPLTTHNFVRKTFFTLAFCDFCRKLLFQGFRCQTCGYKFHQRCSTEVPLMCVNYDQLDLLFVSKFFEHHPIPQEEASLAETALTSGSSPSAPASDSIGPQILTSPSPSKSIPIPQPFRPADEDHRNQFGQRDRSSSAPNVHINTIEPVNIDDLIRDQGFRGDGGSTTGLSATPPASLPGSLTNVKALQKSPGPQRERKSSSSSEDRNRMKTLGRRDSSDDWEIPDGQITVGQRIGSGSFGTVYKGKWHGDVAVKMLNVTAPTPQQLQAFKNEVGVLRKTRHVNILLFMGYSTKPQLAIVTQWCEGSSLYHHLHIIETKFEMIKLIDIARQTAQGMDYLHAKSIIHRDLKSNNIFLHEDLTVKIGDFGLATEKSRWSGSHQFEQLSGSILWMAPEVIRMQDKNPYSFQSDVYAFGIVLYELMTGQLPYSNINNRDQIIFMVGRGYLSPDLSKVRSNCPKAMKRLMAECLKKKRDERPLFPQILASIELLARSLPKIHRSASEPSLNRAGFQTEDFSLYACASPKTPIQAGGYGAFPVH
Method: To test both our binding mode hypothesis and to see if these structural differences could be taken exploited to impart selectivity and potency improvements, I-13, in which the lipophilic 2-trifluoromethy substituent on imidazole ring of inhibitor KIN-035, was replaced by the polar 2-methylsulfonyl substitutent. […] To address this issue, real time kinetic experiments were performed.

[10] = target: T3, EGFR (Homo sapiens, UniProt P00533); conditions: 1 μM, duplicate, without preincubation; cited from earlier work
T3 construct: literature Ambit Biosciences

[11] = target: T4, ERBB4 (Homo sapiens, UniProt Q15303); conditions: 1 μM, duplicate, without preincubation; cited from earlier work
T4 construct: literature Ambit Biosciences

[12] = target: T5, MKNK2 (Homo sapiens, UniProt Q9HBH9); conditions: 1 μM, duplicate, without preincubation; cited from earlier work
T5 construct: literature Ambit Biosciences
T5 sequence (Q9HBH9 whole entry): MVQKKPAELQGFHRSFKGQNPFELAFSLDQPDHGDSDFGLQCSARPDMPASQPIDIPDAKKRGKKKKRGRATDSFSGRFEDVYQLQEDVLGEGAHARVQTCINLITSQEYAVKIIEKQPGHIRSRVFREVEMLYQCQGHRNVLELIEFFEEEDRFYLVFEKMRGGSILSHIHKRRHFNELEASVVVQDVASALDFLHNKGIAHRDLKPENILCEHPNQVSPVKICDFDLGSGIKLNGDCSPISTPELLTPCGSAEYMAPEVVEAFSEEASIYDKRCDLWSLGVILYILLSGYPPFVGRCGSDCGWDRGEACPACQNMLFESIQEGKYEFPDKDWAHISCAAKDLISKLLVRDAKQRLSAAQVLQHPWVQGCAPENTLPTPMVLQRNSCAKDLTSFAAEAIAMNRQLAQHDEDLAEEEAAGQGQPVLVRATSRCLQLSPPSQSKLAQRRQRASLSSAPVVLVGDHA

[13] = target: T6, PRKCE (Homo sapiens, UniProt Q02156); conditions: 1 μM, duplicate, without preincubation; cited from earlier work
T6 construct: literature Ambit Biosciences
T6 sequence (Q02156 1-737): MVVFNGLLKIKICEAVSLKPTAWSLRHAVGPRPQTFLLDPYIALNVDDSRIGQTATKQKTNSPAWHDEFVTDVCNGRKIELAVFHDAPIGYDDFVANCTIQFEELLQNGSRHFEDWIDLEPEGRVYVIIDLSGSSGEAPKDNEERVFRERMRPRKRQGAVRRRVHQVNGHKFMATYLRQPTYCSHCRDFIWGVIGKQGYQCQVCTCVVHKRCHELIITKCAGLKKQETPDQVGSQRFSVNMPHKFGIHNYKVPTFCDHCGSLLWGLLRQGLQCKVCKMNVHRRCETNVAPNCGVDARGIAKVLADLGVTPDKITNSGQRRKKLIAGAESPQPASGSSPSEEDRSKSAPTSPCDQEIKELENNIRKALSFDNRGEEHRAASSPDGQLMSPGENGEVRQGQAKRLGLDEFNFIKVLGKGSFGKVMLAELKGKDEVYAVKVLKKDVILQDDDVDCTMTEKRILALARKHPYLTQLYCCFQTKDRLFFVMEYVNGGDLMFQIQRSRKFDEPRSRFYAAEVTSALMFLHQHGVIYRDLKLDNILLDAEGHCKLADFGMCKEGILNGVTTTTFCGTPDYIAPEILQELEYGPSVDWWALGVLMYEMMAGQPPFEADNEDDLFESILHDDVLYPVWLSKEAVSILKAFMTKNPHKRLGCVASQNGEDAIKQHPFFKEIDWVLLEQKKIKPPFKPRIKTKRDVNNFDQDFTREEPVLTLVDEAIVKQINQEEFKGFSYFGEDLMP

[14] = target: T7, VEGFR2 (Homo sapiens, UniProt P35968); conditions: 1 μM, duplicate, without preincubation; cited from earlier work
T7 construct: literature Ambit Biosciences

[15] = target: T2, BRAF(V600E); parameters: literature Ambit Biosciences; conditions: 1 μM, duplicate, without preincubation; cited from earlier work
[16] = target: EPHA2 (Homo sapiens, UniProt P29317); parameters: literature Ambit Biosciences; conditions: 1 μM, duplicate, without preincubation; cited from earlier work
[17] = target: T8, CDK3 (Homo sapiens, UniProt Q00526); conditions: 1 μM, duplicate, without preincubation; cited from earlier work
T8 construct: literature Ambit Biosciences
T8 sequence (Q00526 whole entry): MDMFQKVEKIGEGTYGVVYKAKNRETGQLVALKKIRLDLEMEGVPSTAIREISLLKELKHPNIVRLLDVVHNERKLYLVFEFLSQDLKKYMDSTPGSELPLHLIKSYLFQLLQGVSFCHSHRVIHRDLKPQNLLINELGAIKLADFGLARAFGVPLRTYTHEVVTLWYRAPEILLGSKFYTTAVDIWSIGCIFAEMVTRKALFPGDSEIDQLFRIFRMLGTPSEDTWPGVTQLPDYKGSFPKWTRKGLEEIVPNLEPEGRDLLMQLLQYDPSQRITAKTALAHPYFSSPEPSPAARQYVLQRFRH

[18] = target: T9, KIT(D816V) (Homo sapiens, UniProt P10721, D816V); conditions: 1 μM, duplicate, without preincubation; cited from earlier work
T9 construct: literature Ambit Biosciences

[19] = target: T10, PCTK1 (Homo sapiens, UniProt Q00536); conditions: 1 μM, duplicate, without preincubation; cited from earlier work
T10 construct: literature Ambit Biosciences

[20] = target: T11, ULK2 (Homo sapiens, UniProt Q8IYT8); conditions: 1 μM, duplicate, without preincubation; cited from earlier work
T11 construct: literature Ambit Biosciences
T11 sequence (Q8IYT8 whole entry): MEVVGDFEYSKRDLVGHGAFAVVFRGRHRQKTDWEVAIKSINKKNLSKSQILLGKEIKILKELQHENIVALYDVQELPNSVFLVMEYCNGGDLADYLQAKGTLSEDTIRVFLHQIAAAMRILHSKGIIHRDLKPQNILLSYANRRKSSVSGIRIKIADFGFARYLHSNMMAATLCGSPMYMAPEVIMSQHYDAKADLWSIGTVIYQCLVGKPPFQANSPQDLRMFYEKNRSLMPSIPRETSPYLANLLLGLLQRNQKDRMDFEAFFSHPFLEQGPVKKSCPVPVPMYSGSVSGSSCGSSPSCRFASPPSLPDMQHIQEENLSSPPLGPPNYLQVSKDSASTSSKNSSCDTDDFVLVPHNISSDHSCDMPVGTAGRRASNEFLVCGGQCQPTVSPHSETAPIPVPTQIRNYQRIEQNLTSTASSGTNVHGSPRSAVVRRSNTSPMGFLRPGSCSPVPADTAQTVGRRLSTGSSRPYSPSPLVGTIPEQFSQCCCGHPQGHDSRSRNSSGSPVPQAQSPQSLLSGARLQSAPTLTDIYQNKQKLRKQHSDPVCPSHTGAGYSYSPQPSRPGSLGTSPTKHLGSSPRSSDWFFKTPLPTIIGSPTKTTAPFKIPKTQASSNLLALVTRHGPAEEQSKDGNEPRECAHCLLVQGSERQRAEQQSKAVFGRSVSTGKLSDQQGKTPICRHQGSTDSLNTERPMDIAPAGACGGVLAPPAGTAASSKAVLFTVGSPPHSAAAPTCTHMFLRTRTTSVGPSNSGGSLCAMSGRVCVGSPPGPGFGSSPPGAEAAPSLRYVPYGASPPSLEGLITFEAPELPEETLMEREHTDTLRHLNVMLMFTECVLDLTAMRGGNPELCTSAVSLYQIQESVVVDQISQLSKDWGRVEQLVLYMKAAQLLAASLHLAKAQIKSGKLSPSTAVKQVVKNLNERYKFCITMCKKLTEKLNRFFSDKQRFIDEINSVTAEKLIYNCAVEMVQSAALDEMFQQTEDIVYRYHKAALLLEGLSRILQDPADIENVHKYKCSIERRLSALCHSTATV

T1 sequence (P15056 whole entry): as the sequence (P15056 whole entry V600E) above, with E600V counted along it

Row | inhibition at 5 µM [1] [%] | inhibition at 5 µM [2] [%] | inhibition at 5 µM [3] [%] | inhibition at 5 µM [4] [%] | inhibition at 5 µM [5] [%] | inhibition at 5 µM [6] [%] | inhibition at 5 µM [7] [%] | inhibition at 5 µM [8] [%] | IC50 [9] [nM] | SMILES | inhibition of EGFR [10] | inhibition of ERBB4 [11] | inhibition of MKNK2 [12] | inhibition of PRKCE [13] | inhibition of VEGFR2 [14] | inhibition of BRAF(V600E) [15] | inhibition of EPHA2 [16] | inhibition of CDK3 [17] | inhibition of KIT(D816V) [18] | inhibition of PCTK1 [19] | inhibition of ULK2 [20]
1 | ≥ 50 | ≥ 50 | ≥ 50 | ≥ 50 | ≥ 50 | ≥ 50 | ≥ 50 | ≥ 50 | – | CNC(=O)c1cc(Oc2ccc(NC(=O)c3nc(C(F)(F)F)[nH]c3-c3ccc(F)cc3)cc2)ccn1 [Inhibitor I-6, 4-(4-{[5-(4-Fluoro-phenyl)-2-trifluoromethyl-3H-imidazole-4-carbonyl]-amino}-phenoxy)-pyridine-2-carboxylic acid methylamide] | – | – | – | – | – | – | – | – | – | – | –
2 | – | – | – | – | – | – | – | – | 67 | Cc1ccc(NC(=O)c2[nH]c(C(F)(F)F)nc2-c2ccc(F)cc2)cc1Nc1ccc2ncn(C)c(=O)c2c1 [KIN-035] | X (X > 25% @ 1 μM) | X (X > 25% @ 1 μM) | X (X > 25% @ 1 μM) | X (X > 25% @ 1 μM) | X (X > 25% @ 1 μM) | XXXX (XXXX > 90% @ 1 μM) | XX (XX > 50% @ 1 μM) | – | – | – | –
3 | – | – | – | – | – | – | – | – | – | Cc1ccc(-c2nc(C(F)(F)F)[nH]c2C(=O)Nc2ccc(C)c(Nc3ccc4ncn(C)c(=O)c4c3)c2)cc1F [KIN-038] | – | – | – | X (X > 25% @ 1 μM) | – | XXXX (XXXX > 90% @ 1 μM) | – | X (X > 25% @ 1 μM) | X (X > 25% @ 1 μM) | X (X > 25% @ 1 μM) | X (X > 25% @ 1 μM)
